Data on twelve molecules can be found in ChEMBL document CHEMBL1129892, “Tetracyclic analogues of [+]-S 14297: Synthesis and determination of affinity and selectivity at cloned human dopamine D3 vs D2 receptors” (Bioorg Med Chem Lett, 1997).

The target in assay [1] is D(2) dopamine receptor (Homo sapiens, UniProt P14416). In kind it is cell membranes, CHO.
The target of assay [2] is D(3) dopamine receptor (Homo sapiens, UniProt P35462). Description: biochemical.
D(3) dopamine receptor, sequence (P35462 whole entry): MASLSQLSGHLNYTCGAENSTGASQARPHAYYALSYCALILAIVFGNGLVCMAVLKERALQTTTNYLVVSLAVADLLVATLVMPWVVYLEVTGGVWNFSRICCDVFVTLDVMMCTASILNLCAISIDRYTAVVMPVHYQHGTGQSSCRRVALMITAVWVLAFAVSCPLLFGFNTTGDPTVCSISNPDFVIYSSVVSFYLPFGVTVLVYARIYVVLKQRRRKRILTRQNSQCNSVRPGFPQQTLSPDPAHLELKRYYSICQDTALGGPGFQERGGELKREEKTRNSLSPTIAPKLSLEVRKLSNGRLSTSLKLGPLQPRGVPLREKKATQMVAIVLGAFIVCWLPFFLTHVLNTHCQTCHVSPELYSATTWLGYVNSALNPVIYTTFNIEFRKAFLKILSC
Description: Inhibition of [125 I]iodosulpiride binding to human Dopamine receptor D3 expressed in CHO cell membranes

D(2) dopamine receptor, sequence (P14416 whole entry): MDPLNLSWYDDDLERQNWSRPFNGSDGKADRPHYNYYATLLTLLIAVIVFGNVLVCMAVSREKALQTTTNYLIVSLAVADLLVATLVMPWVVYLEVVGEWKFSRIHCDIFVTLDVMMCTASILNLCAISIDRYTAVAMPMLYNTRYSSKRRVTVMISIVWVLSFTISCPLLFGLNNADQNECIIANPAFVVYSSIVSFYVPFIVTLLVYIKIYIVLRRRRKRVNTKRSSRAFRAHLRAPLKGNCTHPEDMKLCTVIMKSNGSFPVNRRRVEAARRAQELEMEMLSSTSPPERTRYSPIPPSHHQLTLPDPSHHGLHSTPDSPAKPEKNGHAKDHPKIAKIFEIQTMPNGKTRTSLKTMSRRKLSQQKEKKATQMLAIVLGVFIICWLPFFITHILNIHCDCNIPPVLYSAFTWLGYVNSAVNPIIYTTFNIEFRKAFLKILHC

One may read the Ki as the equilibrium dissociation constant of an inhibitor or competing ligand from its target. A lower Ki goes with higher affinity. Molecule `CCCN1CCO[C@H]2c3cc4c(cc3CC[C@H]21)CCO4` gave a Ki in assay [1] greater than 10000 nM. Consider `c1c2c(cc3c1CC[C@H]1NCCO[C@H]31)OCC2`, for which the Ki in assay [2] is 200 nM; in assay [1], 1000 nM.

As to `CN1CCO[C@@H]2c3cc4c(cc3CC[C@H]21)CCO4`, the Ki in assay [2] is 79.4 nM; in assay [1] it was 398 nM.

In the case of `CC(C)CN1CCO[C@@H]2c3cc4c(cc3CC[C@H]21)CCO4`, the Ki is 126 nM in assay [2] and 5010 nM in assay [1]. Consider `c1ccc(CCN2CCO[C@@H]3c4cc5c(cc4CC[C@H]32)CCO5)cc1`, for which the Ki in assay [2] and in assay [1] was greater than 10000 nM each time. In the case of `CCCN(CCC)C1CCc2cc3c(cc2C1)OCC3` (stereo not given), the results for the Ki in assay [2] and in assay [1] were 12.6 nM and 251 nM, respectively. For `c1ccc(CN2CCO[C@@H]3c4cc5c(cc4CC[C@H]32)CCO5)cc1` the same measures were greater than 10000 nM and greater than 10000 nM. The corresponding values for `CCCN1CCC[C@@H]2c3cc4c(cc3CC[C@H]21)CCO4` are 25.1 nM and 501 nM. Consider `CCCN1CCO[C@@H]2c3cc4c(cc3OC[C@H]21)CCO4`, for which the Ki in assay [1] was 12600 nM. As for `c1c2c(cc3c1CC[C@@H]1[C@@H]3OCCN1CC1CC1)OCC2`, the Ki in assay [2] was 63.1 nM; in assay [1], 2510 nM.

Turning to `CCCN1CCO[C@H]2c3cc4c(cc3OC[C@H]21)CCO4`, the Ki in assay [1] was greater than 100000 nM. Same read-out and setting: for `CCCN1CCO[C@@H]2c3cc4c(cc3CC[C@H]21)CCO4` the value was 398 nM.
